Measurements published in patent US8003645B2, “Preventives or remedies for Alzheimer's disease, or amyloid protein fibril-formation inhibitors, which include a nitrogen-containing heteroaryl compound” (BTG International Ltd., priority 2001, dated 2011).
Read-outs that look alike come from different tables or passages of the source.

Assays:
HeLa cells = test: Action in inhibiting the lowering of MTT reduction capacity by Aβ1-40; type: cell-based
Method: The HeLa cells employed were purchased from the Dainippon Pharmaceutical Co.
The HeLa cells were seeded by suspension in MEM (Minimum essential medium; produced by the Sigma Chemical Co.) containing 10% inactivated FBS (foetal bovine serum) such that there were 1,000 per well in a 96-well microplate, and then culturing was carried out overnight in an incubator at 37° C. in the presence of 5% CO2.
The test compound was dissolved in dimethyl sulphoxide (DMSO) and diluted with the MEM medium so that the final concentration of DMSO was no more than 0.1 wt %, and added to the cells seeded the previous day. […] Overnight culturing was carried out using an incubator at 37° C. in the presence of 5% CO2, with 100 μL/well of MEM medium containing 5% deactivated FBS.
Now, prior to use, the Aβ1-40 had been dissolved in buffer and left overnight so that the amyloid coagulated.
In order to determine the percentage inhibition of the test compound, cells alone, cells where Aβ1-40 had been added, and cells where only the test compound had been added, were also incubated overnight under the same conditions.
The following day, there was added 10 μL/well of MTT [3-(4,5-dimethylthiazol-2-yl)-2,5-diphenyltetrazolium bromide: produced by Wako Pure Chemical Industries] prepared at a concentration of 5 mg/mL with phosphate buffered saline (PBS), and incubation carried out for 2 hours at 37° C. in the presence of 5% CO2. The medium was then eliminated and the formazan dye produced measured […] (A570 nm-A650 nm) using a Microplate Reader (produced by the Molecular Devices Co.), by dissolving with the addition of 100 μL per well of isopropanol. In this way, the change in the MTT reduction capacity of the HeLa cells was measured.
The percentage inhibition (%) by the test compound was determined from the following formula. inhibition (%) [[…]/(a−c)]×100 where • a=MTT reduction capacity when untreated • b=MTT reduction capacity when Aβ1-40 and the test compound are added • c=MTT reduction capacity when only Aβ1-40 is added

[1] = tested on: acute sections from the hippocampus; test: Suppression of Aβ1-42-induced long-term potentiation impairment (fEPSP slope) in acute hippocampal sections; type: cell-based, Wistar rats
Method: The method for testing the suppression of the impairment of long-term potentiation was based on that described in J. Neurosci. Vol. 20, 2003-10 (2000). That is to say, acute^i sections of thickness 400 μm were prepared from the hippocampus of the brains of 3-4 week old male Wistar rats. These acute sections were immersed in artificial cerebrospinal fluid in which β-amyloid protein (Aβ1-42: produced by the Sigma Chemical Co.) and compound from Production Examples 1 or 12 had been dissolved, and pretreatment carried out for 5 hours.
In the measurement using the compound from Production Example 1, the concentration of the Aβ1-42 in the artificial cerebrospinal fluid was 500 nM and the concentration of the compound from Production Example 1 was 1 μg/mL. In the measurement using the compound from Production Example 12, the concentration of the Aβ1-42 in the artificial cerebrospinal fluid was 1 μM and the concentration of the compound from Production Example 12 was 3 μg/mL. Now, the Aβ1-42 was used after coagulation of the amyloid by leaving overnight.
100 pulses of high frequency stimulation at 100 Hz were applied to the pretreated acute sections, and the field excitatory postsynaptic potential: fEPSP) measured by an extracellular recording method.
The fEPSP was measured at 30 second intervals following application of the high frequency stimulation and the fEPSP slope (units [%]) measured. The average values of the slope over 0-20 minutes, 20-40 minutes and 40-60 minutes were determined. This test was repeated five times over. In the table, the figures are the average values ±standard deviation for the five averages obtained in the five tests. […] “Aβ” denotes the Aβ1-42.
As controls, measurements were made of the fEPSP [mV] under the same conditions for acute sections pretreated with the artificial cerebrospinal fluid alone, acute sections pretreated with the artificial cerebrospinal fluid in which Aβ1-42 had been dissolved, and acute sections pretreated with artificial cerebrospinal fluid in which only the compound from Production Example 1 or 12 had been dissolved, and then the average value of the fEPSP slope [%] obtained.

[2] = Homo sapiens, HeLa cells, Aβ1-40 (100 nM), read-out: IC50 (action in inhibiting the lowering of the MTT reduction capacity by Aβ1-40)
[3] = Table 8, Aβ (1 μM) + compound 1 μg/mL
[4] = Table 8, compound alone 1 μg/mL, no Aβ
[5] = Test 1, Aβ1-42 (500 nM) + compound 1 μg/mL
[6] = Test 1, compound alone 1 μg/mL, no Aβ

Oc1cccc(Nc2ccnc(Nc3cccc(O)c3)n2)c1 [Production Example 6, N,N′-bis(3-hydroxyphenyl)pyrimidine-2,4-diamine]
IC50 (HeLa cells; [2]): 6.7 µM

CC1(C)CC(C)(c2ccc(O)cc2O)c2ccc(O)cc2O1 (stereo not drawn) [Compound A, 4-(7-hydroxy-2,4,4-trimethyl-chroman-4-yl)benzene-1,3-diol, reference compound]
IC50 (HeLa cells; same method as Table 6, HeLa cells, Aβ1-40, read-out: 50% inhibitory concentration (IC50), action in suppressing the lowering of MTT function): 12 µM
Value of fEPSP Slope [%] 0-20 minutes [1, 3]: 159.5 ± 6.6%
Value of fEPSP Slope [%] 20-40 minutes [1, 3]: 142.8 ± 5.4%
Value of fEPSP Slope [%] 40-60 minutes [1, 3]: 137.3 ± 4.5%
Value of fEPSP Slope [%] 0-20 minutes [1, 4]: 168.6 ± 13.0%
Value of fEPSP Slope [%] 20-40 minutes [1, 4]: 146.6 ± 15.9%
Value of fEPSP Slope [%] 40-60 minutes [1, 4]: 149.7 ± 16.1%

CCCCc1nc(Nc2cccc(O)c2)cc(Nc2cccc(O)c2)n1 [Production Example 8, 2-Butyl-N,N′-bis(3-hydroxyphenyl)pyrimidine-4,6-diamine]
IC50 (HeLa cells; [2]): 5.5 µM

Oc1cccc(Nc2cc(Nc3cccc(O)c3)ncn2)c1 [Production Example 5, N,N′-bis(3-hydroxyphenyl)pyrimidine-4,6-diamine]
IC50 (HeLa cells; [2]): 9.6 µM

Cc1nc(Nc2cccc(O)c2)nc(Nc2cccc(O)c2)n1 [Production Example 27, N,N′-bis(3-hydroxyphenyl)-6-methyl-1,3,5-triazine-2,4-diamine]
IC50 (HeLa cells; [2]): 2.4 µM

Nc1nc(Nc2cccc(O)c2)cc(Nc2cccc(O)c2)n1 [Production Example 13, 2-Amino-N,N′-bis(3-hydroxyphenyl)pyrimidine-4,6-diamine]
IC50 (HeLa cells; [2]): 5.5 µM

CC(C)(C)c1nc(Nc2cccc(O)c2)nc(Nc2cccc(O)c2)n1 [Production Example 33, 6-t-Butyl-N,N′-bis(3-hydroxyphenyl)-1,3,5-triazine-2,4-diamine]
IC50 (HeLa cells; [2]): 2.2 µM

O=[N+]([O-])c1c(Nc2cccc(O)c2)ncnc1Nc1cccc(O)c1 [Production Example 18, N,N′-bis(3-hydroxyphenyl)-5-nitropyrimidine-4,6-diamine]
IC50 (HeLa cells; [2]): 3.8 µM

CCc1nc(Nc2cccc(O)c2)nc(Nc2cccc(O)c2)n1 [Production Example 1, 6-Ethyl-N,N′-bis(3-hydroxyphenyl)-1,3,5-triazine-2,4-diamine]
IC50 (HeLa cells; [2]): 3.5 µM
Value of fEPSP Slope [%] 0-20 minutes [1, 5]: 150.0 ± 8.4%
Value of fEPSP Slope [%] 20-40 minutes [1, 5]: 149.6 ± 6.9%
Value of fEPSP Slope [%] 40-60 minutes [1, 5]: 151.2 ± 7.5%
Value of fEPSP Slope [%] 0-20 minutes [1, 6]: 155.3 ± 3.4%
Value of fEPSP Slope [%] 20-40 minutes [1, 6]: 156.5 ± 3.9%
Value of fEPSP Slope [%] 40-60 minutes [1, 6]: 155.8 ± 5.0%
effect of compound on its own on LTP (result in words) ([1]; compound alone, no Aβ): inactive on its own
impairment of the LTP due to Aβ1-42 (result in words) ([1]; pretreating 5 hours with Aβ1-42 together with the compound): suppressed

CCc1nc(Nc2cccc(O)c2)cc(Nc2cccc(O)c2)n1 [Production Example 2, 2-Ethyl-N,N′-bis(3-hydroxyphenyl)pyrimidine-4,6-diamine]
IC50 (HeLa cells; [2]): 1.9 µM

CCC(C)c1nc(Nc2cccc(O)c2)nc(Nc2cccc(O)c2)n1 (stereo not drawn) [Production Example 34, 6-s-Butyl-N,N′-bis(3-hydroxyphenyl)-1,3,5-triazine-2,4-diamine]
IC50 (HeLa cells; [2]): 4.1 µM

CCCc1nc(Nc2cccc(O)c2)cc(Nc2cccc(O)c2)n1 [Production Example 9, 2-Propyl-N,N′-bis(3-hydroxyphenyl)pyrimidine-4,6-diamine]
IC50 (HeLa cells; [2]): 2.4 µM

CCCc1nc(Nc2cccc(O)c2)nc(Nc2cccc(O)c2)n1 [Production Example 10, N,N′-bis(3-hydroxyphenyl)-6-propyl-1,3,5-triazine-2,4-diamine]
IC50 (HeLa cells; [2]): 4.2 µM
